Test results taken from patent US9504248B2, “Antimicrobial composition” (Rohm and Haas Company, priority 2011, dated 2016).
Values after ≈ are worked out from the molar mass of the structure shown.

What follows are compounds tested on Escherichia coli (10536 strain) (assay: 15 second contact suspension kill assay (Example 1 protocol, also Example 3)). Conditions: 15 s contact.
Type: cell-based
Source text: The efficacies of antimicrobial agents can be usefully compared by determining the Minimum Biocidal Concentration (MBC). The MBC is defined as the lowest absolute concentration of the particular active that provides complete kill (zero bacterial growth). The differing behaviours of inhibitory antimicrobtals in Isolation and mixtures have been widely explored using the concept of the Fractional Concentration and Fractional Inhibitory Concentration (FIC). See for instance J R W Lambert and R Lambert, J. Appl. Microblol 95, 734 (2003); T. Jadavji. C G Prober and R Cheung. Antimicrobial Agents and Chemotherapy 26, 91 (1984), and WO 2004/006876. These parameters can be defined as follows:
[formula] [formula] By analogy the Fractional Biocidal Concentration (FBC) is given by:
Antimicrobial efficacy is tested against a representative pathogenic bacterial organism, Gram negative Escherichia coli. Concentrations of actives are expressed in terms of the percentage weight/volume (% w/v) throughout Example 1.
An overnight culture of Escherichia coli (10536 strain) was prepared in 50 ml total volume of TSB broth, grown for ca. 18 hrs at 37° C. and shaken at 150 rpm. 1 ml of this overnight E. coli culture was transferred to 50 ml of fresh TSB broth and incubated at 37° C. at 150 rpm for ca. 4 hours. This culture was separated into equal volumes and centrifuged at 4000 rpm for 15 minutes, washed with sterile saline (0.85% NaCl), centrifuged once more and re-suspended in saline to give a final concentration of 0.8 OD620 equivalent to about 10^8 cells per milliliter for this particular organism. Here, OD620 indicates the absorbance of a sample in a cuvette of 1.0 cm path length at a wavelength of 620 nm. This bacterial stock was used for assaying against antimicrobial actives (in triplicate).
The following assay describes the testing of 8 materials using 6 dilutions across half of a 96-well micro titre plate (MTP). Using this approach it is possible to assay 16 actives (without replicates) with one full dilution plate, replicating this set up in two halves of the plate columns, 1-6 and 7-12.
1M solutions of the test actives were prepared in dimethylsulphoxide (DMSO).
Aliquots (270 μl) of the materials at 1.11 times the final concentration were dispensed into the wells of the MTP along one column (A1-H1). This MTP was labelled as the “Screening plate”.
In another MTP, labelled as the “Dilution plate”, 270 μl of D/E neutralising solution from DIFCO Composition was added to column 1. The composition of the neutralising solution was as follows: pancreatic digest of casein, 5.0 g/L; Yeast Extract, 2.5 g/L; Dextrose, 10 g/L, sodium thioglycollate, 1.0 g/L, sodium thiosulphate, 6.0 g/L; sodium bisulphite, 2.5 g/L; Polysorbate 80, 5.0 g/L; lecithin 7.0 g/L; bromocresol purple, 0.02 g/L with a pH in the range 7.6±0.2.
270 μl of tryptone diluent solution was added to all the remaining wells of the Dilution MTP (columns 2-6).
Bacterial stock (30 μl) was then added to the prepared 270 μl of the solution of actives in the Screening Plate and mixed, using a multichannel pipette with 8 tips to aspirate and dispense the same volume of bacterial stock in parallel to 8 wells in rows A-H. After a contact time of 15 seconds, the mixtures were quenched by transferring 30 μl volumes of the mixtures into the 270 μl D/E neutralising solution in the prepared dilution plate, using aspiration to mix. After exactly 5 minutes in the DIE neutralising solution, 30 μl volumes were transferred from column 1 to column 2 of the Dilution MTP and mixed, before transferring further 30 μl volumes from column 2 into column 3. This process was repeated serially diluting the bacteria across the plate to column 6.
30 μl volumes from each well in the Dilution MTP were transferred onto pre-labelled segment of Tryptone Soya Agar (TSA) plates starting from the lowest bacterial concentration (highest dilution, column 6) to the highest bacterial concentration (column 1).

For `CC1=CCC(C(C)(C)O)CC1` (stereo not drawn) [B, alpha-terpineol, reference compound], the “bacterial kill (in words)” value was “not showing bacterial kill”.
For `Cc1ccc(C(C)C)c(O)c1` [A, thymol, reference compound], the “bacterial kill (in words)” value was “not showing bacterial kill”.

Same assay, conditions: 15 s contact; active concentrations (% w/v) as defined per example; 0 = complete kill; mean of triplicate

Point of comparison: `Oc1ccccc1C1CCCC1` [1:33, 2-cyclopentylphenol], “NMBS, mean bacterial survival” value 7.5 log CFU/ml. Against it:
- CCCCc1ccc(O)cc1 [1:12, 4-n-butylphenol] — lower, 0 log CFU/ml
- Oc1cccc(-c2ccccc2)c1 [3:2, 3-phenylphenol] — lower, 7.4 log CFU/ml
- CC1=CCC(C(C)(C)O)CC1 (stereo not drawn) [1:7, alpha-terpineol] — lower, 7 log CFU/ml
- Oc1ccc(Cc2ccccc2)cc1 [1:45, 4-benzylphenol] — lower, 3.8 log CFU/ml
- CCC(C)c1ccc(O)cc1 (centres unmarked) [1:27, 4-sec-butylphenol] — lower, 0 log CFU/ml
- CCC(C)c1ccc(O)cc1 (centres unmarked) [1:28, 4-sec-butylphenol] — lower, 4.1 log CFU/ml
- CC1=CCC(C(C)(C)O)CC1 (stereo not drawn) [1:6, alpha-terpineol] — lower, 7 log CFU/ml
- Oc1ccccc1Cc1ccccc1 [1:42, 2-benzylphenol] — lower, 7.1 log CFU/ml
- C/C=C/c1ccccc1O [1:39, (E)-2-(prop-1-enyl)phenol] — lower, 6.9 log CFU/ml
- CCCCCc1ccc(O)cc1 [1:16, 4-pentylphenol] — lower, 6.6 log CFU/ml
- Oc1ccc(C2CCCC2)cc1 [1:36, 4-cyclopentylphenol] — lower, 7.1 log CFU/ml
- CC(C)(C)c1ccccc1O [1:18, 2-tert-butylphenol] — lower, 0 log CFU/ml
- CC(C)(C)c1cccc(O)c1 [1:21, 3-tert-butylphenol] — lower, 0 log CFU/ml
- Oc1ccccc1Cc1ccccc1 [1:41, 2-benzylphenol] — lower, 0 log CFU/ml
- Oc1ccc(C2CCCC2)cc1 [1:35, 4-cyclopentylphenol] — lower, 0 log CFU/ml
- Oc1ccc(Cc2ccccc2)cc1 [1:44, 4-benzylphenol] — lower, 0 log CFU/ml
- CC1=CCC(C(C)(C)O)CC1 (stereo not drawn) [1:5, alpha-terpineol] — lower, 0 log CFU/ml
- CCCCCc1ccc(O)cc1 [1:15, 4-n-pentylphenol] — lower, 0 log CFU/ml
- Oc1ccccc1C1CCCC1 [1:31, 2-cyclopentylphenol] — lower, 0 log CFU/ml
- CCCc1ccc(O)cc1 [1:8, 4-n-propylphenol] — lower, 0 log CFU/ml
- CCC(C)c1ccccc1O (centres unmarked) [1:24, 2-sec-butylphenol] — lower, 0 log CFU/ml
- Oc1cccc(-c2ccccc2)c1 [3:1, 3-phenylphenol] — lower, 4.3 log CFU/ml
- CC(C)(C)c1ccccc1O [1:19, 2-tert-butylphenol] — the same, 7.5 log CFU/ml
- CC1=CCC(C(C)(C)O)CC1 (stereo not drawn) [1:4, alpha-terpineol] — lower, 0 log CFU/ml
- CCC(C)c1ccccc1O (centres unmarked) [1:25, 2-sec-butylphenol] — the same, 7.5 log CFU/ml
- Oc1ccccc1C1CCCC1 [1:32, 2-cyclopentylphenol] — lower, 3.4 log CFU/ml
- CCC(C)c1ccc(O)cc1 (centres unmarked) [1:29, 4-sec-butylphenol] — higher, 7.6 log CFU/ml
- Oc1cccc(-c2ccccc2)c1 [3:3, 3-phenylphenol] — higher, 7.7 log CFU/ml
- CCCc1ccc(O)cc1 [1:9, 4-n-propylphenol] — higher, 7.8 log CFU/ml
- C/C=C/c1ccccc1O [1:38, (E)-2-(prop-1-enyl)phenol] — lower, 0 log CFU/ml
- CCCCc1ccc(O)cc1 [1:13, 4-butylphenol] — lower, 7.0 log CFU/ml
- CC(C)(C)c1cccc(O)c1 [1:22, 3-tert-butylphenol] — higher, 7.6 log CFU/ml

Same assay, conditions: Escherichia coli, 15 s, read-out: Minimum biocidal concentration (MBC)

`C/C=C/c1ccccc1O` [(E)-2-(prop-1-enyl)phenol] gave an MBC of 1500 µg/mL (≈ 11.2 mM).

Same assay, conditions: Escherichia coli, 15 s, read-out: Minimum biocidal concentration (MBC), component alone; lowest tested concentration giving zero bacterial survival after 15 s; upper boundary

In the case of `Oc1cccc(-c2ccccc2)c1` [3-phenylphenol], the MBC is reported as ≥ 1250 µg/mL.

Same assay, conditions: Escherichia coli, 15 s; component alone; lowest tested concentration giving zero bacterial survival after 15 s; upper boundary; read-out: Minimum biocidal concentration (MBC)

Point of comparison: `Cc1ccc(C(C)C)c(O)c1` [Thymol, thymol, reference compound], MBC 500 µg/mL (≈ 3.33 mM). Against it:
- CC(C)(C)c1cccc(O)c1 [3-tert-butylphenol] — 1.6-fold higher, 800 µg/mL (≈ 5.33 mM)
- CCC(C)c1ccc(O)cc1 (centres unmarked) [4-sec-butylphenol] — 1.6-fold higher, 800 µg/mL (≈ 5.33 mM)
- CCCCc1ccc(O)cc1 [4-n-butylphenol] — 2-fold lower, 250 µg/mL (≈ 1.66 mM)

The compounds below were run on Escherichia coli (E. coli - ATCC #10536) (assay: Automated assessment of efficacy in surfactant base, 15 seconds exposure, OD450/OD590 readout (Example 4)). Conditions: cocoyl glycinate and lauroamphoacetate.
Type: cell-based
Procedure: In these examples, the efficacy of combinations of monosubstituted phenols and terpineol were tested in a surfactant cleansing formulation comprising 2.85% sodium cocoyl glycinate and 1.85% sodium lauroamphoacetate. This corresponds to a 50% in use dilution with water of a typical neat formulation containing 5.7% cocoyl glycinate and 3.7% % sodium lauroamphoacetate during hand washing. Solutions were prepared such that the concentrations of the surfactant components and test actives were 1.1 times the final desired concentration in order to allow for dilution with the bacterial inoculum in the test. The solutions were manually adjusted to pH 10.0 by dropwise addition of sodium hydroxide solution, as measured with a pH meter at ambient temperature. Solutions of the monosubstituted phenols and/or terpineols were prepared at a maximum of 24 hours before testing. The same terpineol was used as in Example 1.
The efficacy of the combinations of the present invention was determined against the same bacterium as in Example 1, Escherichia coli (E. coli—ATCC #10536), at a concentration of approximately 1×10^8 bacteria per mL.
Tests were conducted using standard microtiter plate assays using an automated liquid handling system. 270 μl of the surfactant test solution was pipetted into each well of the microtitre plate (Nunc F Gamma Irradiated 96F untreated microtitre plates of clear polystyrene) and 30 μl of the bacterial suspension was then added. After exactly 15 seconds of bacterial exposure, a 30 μl volume of bacterial cells was withdrawn and transferred to 270 μl of D/E quench solution. After 5 minutes in the D/E quench, the optical density (OD) was measured for each plate in turn at two specific wavelengths (450 nm and 590 nm). These provide a dual check of antimicrobial activity, as the OD450 reading is specific for the yellow colour of D/E quench when bacterial growth is observed, whereas OD590 is specific for the initial purple colour of the D/E quench which is retained if no bacterial growth is observed. After the time zero OD measurements, plates were then incubated at 37° C. overnight (16 hours) before repeating the OD measurements. Delta OD values were calculated by subtracting […] at time=16 hours. Bacterial growth is observed as an increase in OD450 and a decrease in OD590. To identify antibacterially efficacious systems (those preventing appreciable bacterial growth after incubation), the following threshold changes in OD readings have been adopted: if (1). OD450 increases by less than 0.2 absorbance unit (AU) on incubation and (2). OD590 decreases by less than 0.35 AU on incubation. Conversely, where OD450 increases by more than […] after incubation, corresponding to a colour shift from purple to yellow, the test system allows bacterial growth and is not deemed efficacious. Four replicate measurements in the same plate have been made for each test system. The number of replicate wells showing either bacterial growth or no growth is also readily assessed by eye by following the colour change. Thymol and terpineol were tested both alone and in combination for comparison purposes.
In some selected cases, the combinations were also tested at the weight ratio 1:1.
The surfactants used are not themselves antimicrobially active against E. coli at the concentrations employed as shown by the results of Ex. (4:1) in Table 24. Thus, any antimicrobial efficacy can be ascribed to the monosubstituted phenols and/or terpineol. Table 25 presents MBC-values determined similarly as described for Example 1.

For `CC(C)(C)c1ccc(O)cc1` [4-tert-butylphenol], the “antimicrobial action in combination with terpineol in the presence of surfactant (in words)” value (from here on “antimicrobial action in combination”) was “enhanced antimicrobial action”.
With `CC(C)(C)c1cccc(O)c1` [3-tert-butylphenol] the “antimicrobial action in combination” value was “enhanced antimicrobial action”.
For `CCC(C)c1ccc(O)cc1` (centres unmarked) [4-sec-butylphenol], the “antimicrobial action in combination” value was “enhanced antimicrobial action”.
`Oc1cccc(-c2ccccc2)c1` [3-phenylphenol] was tested, and the “antimicrobial action in combination” value was “enhanced antimicrobial action”.
`C/C=C/c1ccccc1O` [(E)-2-(prop-1-enyl)phenol] was tested, and the “antimicrobial action in combination” value was “enhanced antimicrobial action”.
With `CCCCc1ccc(O)cc1` [4-n-butylphenol] the “antimicrobial action in combination” value was “enhanced antimicrobial action”.
